Test results as given in paper PMC10082216 (Nature Communications, 2023).

Legend:
healthy subjects = assay: TD-6450 phase I clinical study (SAD/MAD): safety and tolerability; assay type: in vivo, human
From the text: This was a phase I, double-blinded, randomized, placebo-controlled, Single Ascending Dose (SAD) and Multiple Ascending Dose (MAD) study to evaluate the safety and tolerability of TD-6450 in healthy subjects (primary objective) and the pharmacokinetics (secondary objective). The study is available in the website clinicaltrial.gov (identifier NCT02022306), it started on February the 4th 2014 (first subject enrolled) and was concluded on August the 18th 2014 (last subject concluded), in the Healthcare Discoveries (a subsidiary of ICON Development Solutions) in San Antonio, Texas, USA. Healthy, non-smoking subjects with no history of significant medical conditions, with a BMI included between 18 and 30 kg/m^2, who weight at least 50 kg, between 18 and 60 years old, were selected for this study. Subjects were able and willing to give an informed consent. No bias was reported in the selection process. The protocol and all amendments for this study and all accompanying material that was provided to subjects (including advertisements, subject’s information sheets, and descriptions of the study used to obtain informed consent) were submitted by the investigator to the centralized Institutional Review Board (IRB), namely the IntegReview, established in 1999 at Austin (Texas, U.S.A.) and acquired by Advarra in 2020. Documented approval was obtained before the study was started, on March the 28th 2014. This study was conducted in accordance with the protocol, the principles of the International Conference on Harmonization of Technical Requirements for Registration of Pharmaceuticals for Human Use (ICH) Guideline for Good Clinical Practice (GCP), the United States Code of Federal Regulations, the principles of the World Medical Association Declaration of Helsinki, Ethical Principles for Medical Research Involving Human Subjects, and all applicable regulatory requirement.
Primary and secondary outcomes were pre-defined as follows: Safety and tolerability as a primary outcome, pharmacokinetics as a secondary outcome. Safety and tolerability were evaluated using standard measures, including adverse event (AE) monitoring, clinical laboratory tests (hematology, serum chemistry, coagulation, and urinalysis), vital signs, physical examinations, and 12-lead electrocardiograms (ECGs). […] Pharmacokinetics were evaluated by the collection of blood samples from each subject at following time points: predose (within 30 min before dosing, only in day 1 60 min before dosing), and 0.5,1,2,3,4,6,8 and 12 hours after dosing.
This study was conducted in two parts, Part A (SAD) and Part B (MAD). For the Part A, the age of enrolled subjects ranged from 20 to 60 years, with a mean age range of 32.1 to 46.2 years. Most subjects were male (73 total subjects) and most were white (55 subjects) or black (22 subjects). For Part B of the study, ages ranged from 23 to 60 years with a similar mean age across treatment groups. Most subjects were male (25 total subjects) and all were either white (18 subjects) or black (12 subjects). For each part of the study, the mean body mass index (BMI) and creatinine clearance were similar across treatment groups. […] Part A: Healthy subjects were sequentially enrolled and randomly assigned to each dose cohort (up to 10 dose-ascending cohorts were planned, including a fed arm in the food effect cohort) to receive either a single dose of TD-6450 or placebo. For each dose cohort, 8 subjects were randomized in a 3:1 ratio (6 subjects received TD-6450 and 2 subjects received placebo). The starting dose of TD-6450 was 0.5 mg with a planned maximum dose of 1000 mg. Upon review of the 500-mg cohort PK data, the decision was made to not escalate to the 1000-mg cohort because of exposure saturation at ≥ 500 mg. The following doses were administered: 0.5 mg, 1.5 mg, 5 mg, 15 mg, 30 mg, 60 mg, 120 mg, 240 mg, and 500 mg. […]

[1] = read-out: Cmax in humans; at the lowest dose; ref not given; cited from earlier work

## CNC(=O)N1C[C@@H](C)N(c2ccc(C(=O)Nc3ccc(-c4ccc(-c5c[nH]c([C@@H]6CCCN6C(=O)[C@@H](NC(=O)OC)C(C)C)n5)cc4)c(OC(F)(F)F)c3)cn2)C[C@@H]1C [TD-6450]
Healthy subjects; MAD 60 mg once daily 14 days
  At least one AE N (%): 4 (50.0) N (%)
  At least one SAE N (%): 0 (0.0) N (%)
  Death N (%): 0 (0.0) N (%)
  Discontinuation due to an AE N (%): 0 (0.0) N (%)
Healthy subjects; MAD 120 mg once daily 14 days
  At least one AE N (%): 3 (37.5) N (%)
  At least one SAE N (%): 0 (0.0) N (%)
  Death N (%): 0 (0.0) N (%)
  Discontinuation due to an AE N (%): 0 (0.0) N (%)
Healthy subjects; MAD 240 mg once daily 14 days
  At least one AE N (%): 3 (37.5) N (%)
  At least one SAE N (%): 0 (0.0) N (%)
  Death N (%): 0 (0.0) N (%)
  Discontinuation due to an AE N (%): 0 (0.0) N (%)
Healthy subjects; SAD 0.5 mg
  At least one AE N (%): 3 (50.0) N (%)
  At least one SAE N (%): 0 (0.0) N (%)
  Death N (%): 0 (0.0) N (%)
  Discontinuation due to an AE N (%): 0 (0.0) N (%)
Healthy subjects; SAD 1.5 mg
  At least one AE N (%): 3 (50.0) N (%)
  At least one SAE N (%): 0 (0.0) N (%)
  Death N (%): 0 (0.0) N (%)
  Discontinuation due to an AE N (%): 0 (0.0) N (%)
Healthy subjects; SAD 5 mg
  At least one AE N (%): 0 (0.0) N (%)
  At least one SAE N (%): 0 (0.0) N (%)
  Death N (%): 0 (0.0) N (%)
  Discontinuation due to an AE N (%): 0 (0.0) N (%)
Healthy subjects; SAD 15 mg
  At least one AE N (%): 1 (16.7) N (%)
  At least one SAE N (%): 0 (0.0) N (%)
  Death N (%): 0 (0.0) N (%)
  Discontinuation due to an AE N (%): 0 (0.0) N (%)
Healthy subjects; SAD 30 mg
  At least one AE N (%): 1 (16.7) N (%)
  At least one SAE N (%): 0 (0.0) N (%)
  Death N (%): 0 (0.0) N (%)
  Discontinuation due to an AE N (%): 0 (0.0) N (%)
Healthy subjects; SAD 60 mg
  At least one AE N (%): 0 (0.0) N (%)
  At least one SAE N (%): 0 (0.0) N (%)
  Death N (%): 0 (0.0) N (%)
  Discontinuation due to an AE N (%): 0 (0.0) N (%)
Healthy subjects; SAD 120 mg
  At least one AE N (%): 1 (16.7) N (%)
  At least one SAE N (%): 0 (0.0) N (%)
  Death N (%): 0 (0.0) N (%)
  Discontinuation due to an AE N (%): 0 (0.0) N (%)
Healthy subjects; SAD 240 mg
  At least one AE N (%): 0 (0.0) N (%)
  At least one SAE N (%): 0 (0.0) N (%)
  Death N (%): 0 (0.0) N (%)
  Discontinuation due to an AE N (%): 0 (0.0) N (%)
Healthy subjects; SAD 500 mg
  At least one AE N (%): 2 (33.3) N (%)
  At least one SAE N (%): 0 (0.0) N (%)
  Death N (%): 0 (0.0) N (%)
  Discontinuation due to an AE N (%): 0 (0.0) N (%)
Healthy subjects; single or multiple doses
  severe adverse events in Phase 1 study: no severe adverse events

## C[C@H]1Cc2c([nH]c3cc(Cl)c(F)cc23)[C@@]2(N1)C(=O)Nc1ccc(Cl)cc12 [NITD609, cipargamin]
[1]
  Cmax: 630 nM
